target: His-tagged p53-Y220C DNA binding domain (Homo sapiens, UniProt P04637, Y220C); assay: Biochemical p53-Y220C and DNA binding assay (HTRF); settings: inflection point of 10 points dose titration, 4 parameter curve fit; p53-Y220C DBD 100 nM, biotinylated dsDNA 200 nM, 27 to 29° C.; read-out: HTRF IP
Source text: Biological Example 1. Biochemical p53-Y220C and DNA Binding Assay
The compounds of this invention can bind to p53-Y220C and increase the ability of the mutant p53 to bind to DNA at higher temperatures. His-tagged p53-Y220C DNA binding domain containing amino acid 94-312 is used to measure DNA binding activities in vitro with the sequence described below. (SEQ ID NO: 1: […]. Biotin labeled double strand DNA (dsDNA) containing consensus p53 binding sequence (SEQ ID NO: 2: Forward: 5′-(biotin)-[…]-3′; Reverse: 5′-(biotin)-[…]-3′) is used to measure protein-DNA binding activities. Compounds, His-tagged p53-Y220C DBD proteins (100 nM), and biotinylated dsDNA (200 nM) were mixed in ice-cold assay buffer containing DPBS, 20 mM NaCl, and 0.5% BAS, and incubated at 4° C. overnight in 384-well plate. Plates were transferred to incubator at 27 to 29° C. with constant shaking for 60 minutes. Equal volume of Homogeneous Time-Resolved Fluorescence (HTRF) dyes containing mAb anti-6HIS Tb cryptate gold and d2 labeled streptavidin in the assay buffer was added to each well and incubated at 27 to 29° C. with constant shaking for 60 minutes. The plate was read using Envision multimode plate reader. Reference compound 1 was used as high control and DMSO was used as low control. The percentage activation (A %) of protein-DNA binding by compounds was normalized by setting up high control (reference compound) as […] and low control (DMSO) as 0% (A %=(HTRF ratio of compound-HTRF ratio of low control)/(HTRF ratio of high control-HTRF ratio of low control)*500). 10 points dose titration curves for each compound were analyzed by 4 parameter curve fit and inflection point (IP) was reported. Reference compound 1 is shown below Table 1. Compounds of the invention are active in the HTRF assay. Data in Table 1 collected using Biological Example 1.

EC50 [µM] | SMILES
0.1 to 1 | CC(O)(CO/N=C\c1sc2c(N[C@@H]3CNC[C@@H]3F)cccc2c1CC(F)(F)F)c1ccccc1 (stereo partly drawn) [Example 1-22, (Z)-7-(((3R,4S)-4-fluoropyrrolidin-3-yl)amino)-3-(2,2,2-trifluoroethyl)benzo[b]thiophene-2-carbaldehyde O-(2-hydroxy-2-phenylpropyl) oxime]
> 1 | O=C(OCc1ccccc1)N1CCC(O)(CO/N=C/c2sc3c(N[C@@H]4CNC[C@@H]4F)cccc3c2CC(F)(F)F)CC1 [Example 1-25, benzyl 4-(((((E)-(7-(((3R,4S)-4-fluoropyrrolidin-3-yl)amino)-3-(2,2,2-trifluoroethyl)benzo[b]thiophen-2-yl)methylene)amino)oxy)methyl)-4-hydroxypiperidine-1-carboxylate]
> 1 | O=C(OCc1ccccc1)N1CCC(CO)(O/N=C/c2sc3c(N[C@@H]4CNC[C@@H]4F)cccc3c2CC(F)(F)F)CC1 [Example 1-26, benzyl 4-((((E)-(7-(((3R,4S)-4-fluoropyrrolidin-3-yl)amino)-3-(2,2,2-trifluoroethyl)benzo[b]thiophen-2-yl)methylene)amino)oxy)-4-(hydroxymethyl)piperidine-1-carboxylate]
0.1 to 1 | OC(CO/N=C/c1sc2c(N[C@@H]3CNC[C@@H]3F)cccc2c1CC(F)(F)F)Cn1cccn1 (stereo partly drawn) [Example 1-27, (E)-7-(((3R,4S)-4-fluoropyrrolidin-3-yl)amino)-3-(2,2,2-trifluoroethyl)benzo[b]thiophene-2-carbaldehyde O-(2-hydroxy-3-(1H-pyrazol-1-yl)propyl) oxime]
> 1 | OC1(CO/N=C/c2sc3c(N[C@@H]4CNC[C@@H]4F)cccc3c2CC(F)(F)F)CCCCC1 [Example 1-29, (E)-7-(((3R,4S)-4-fluoropyrrolidin-3-yl)amino)-3-(2,2,2-trifluoroethyl)benzo[b]thiophene-2-carbaldehyde O-((1-hydroxycyclohexyl)methyl) oxime]
> 1 | OCC1(O/N=C/c2sc3c(N[C@@H]4CNC[C@@H]4F)cccc3c2CC(F)(F)F)CCCCC1 [Example 1-30, (E)-7-(((3R,4S)-4-fluoropyrrolidin-3-yl)amino)-3-(2,2,2-trifluoroethyl)benzo[b]thiophene-2-carbaldehyde O-(1-(hydroxymethyl)cyclohexyl) oxime]
> 1 | OC1(CO/N=C/c2sc3c(N[C@@H]4CNC[C@@H]4F)cccc3c2CC(F)(F)F)CCCNC1 (stereo partly drawn) [Example 1-32, (E)-7-(((3R,4S)-4-fluoropyrrolidin-3-yl)amino)-3-(2,2,2-trifluoroethyl)benzo[b]thiophene-2-carbaldehyde O-((3-hydroxypiperidin-3-yl)methyl) oxime]
> 1 | OC1CNCCC1O/N=C/c1sc2c(N[C@@H]3CNC[C@@H]3F)cccc2c1CC(F)(F)F (stereo partly drawn) [Example 1-33, (E)-7-(((3R,4S)-4-fluoropyrrolidin-3-yl)amino)-3-(2,2,2-trifluoroethyl)benzo[b]thiophene-2-carbaldehyde O-(3-hydroxypiperidin-4-yl) oxime]
0.1 to 1 | OC1CCCCC1O/N=C/c1sc2c(N[C@@H]3CNC[C@@H]3F)cccc2c1CC(F)(F)F (stereo partly drawn) [Example 1-35, (E)-7-(((3R,4S)-4-fluoropyrrolidin-3-yl)amino)-3-(2,2,2-trifluoroethyl)benzo[b]thiophene-2-carbaldehyde O-(2-hydroxycyclohexyl) oxime]
0.1 to 1 | OC1CNCC1O/N=C/c1sc2c(N[C@@H]3CNC[C@@H]3F)cccc2c1CC(F)(F)F (stereo partly drawn) [Example 1-36, (E)-7-(((3R,4S)-4-fluoropyrrolidin-3-yl)amino)-3-(2,2,2-trifluoroethyl)benzo[b]thiophene-2-carbaldehyde O-(4-hydroxypyrrolidin-3-yl) oxime]
< 0.1 | OC1COCC1O/N=C/c1sc2c(N[C@@H]3CNC[C@@H]3F)cccc2c1CC(F)(F)F (stereo partly drawn) [Example 1-37, (E)-7-(((3R,4S)-4-fluoropyrrolidin-3-yl)amino)-3-(2,2,2-trifluoroethyl)benzo[b]thiophene-2-carbaldehyde O-(4-hydroxytetrahydrofuran-3-yl) oxime]
0.1 to 1 | CS(=O)(=O)N1CC(O)C(O/N=C/c2sc3c(N[C@@H]4CNC[C@@H]4F)cccc3c2CC(F)(F)F)C1 (stereo partly drawn) [Example 1-38, (E)-7-(((3R,4S)-4-fluoropyrrolidin-3-yl)amino)-3-(2,2,2-trifluoroethyl)benzo[b]thiophene-2-carbaldehyde O-(4-hydroxy-1-(methylsulfonyl)pyrrolidin-3-yl) oxime]
> 1 | CN1CC[C@@H](Nc2cccc3c2cc(/C=N/OCc2ccccc2)n3CC(F)(F)F)[C@@H](F)C1 [Example 2-3, (E)-4-(((3S,4R)-3-fluoro-1-methylpiperidin-4-yl)amino)-1-(2,2,2-trifluoroethyl)-1H-indole-2-carbaldehyde O-benzyl oxime]
> 1 | CN1CC[C@@H](Nc2cccc3c2cc(/C=N\Oc2ccccc2)n3CC(F)(F)F)[C@@H](F)C1 [Example 2-5, (Z)-4-(((3S,4R)-3-fluoro-1-methylpiperidin-4-yl)amino)-1-(2,2,2-trifluoroethyl)-1H-indole-2-carbaldehyde O-phenyl oxime]

The next lines start with the compound.

SMILES | EC50 [µM]
OCC1(O/N=C/c2sc3c(N[C@@H]4CNC[C@@H]4F)cccc3c2CC(F)(F)F)CCOCC1 [Example 1-21, (E)-7-(((3R,4S)-4-fluoropyrrolidin-3-yl)amino)-3-(2,2,2-trifluoroethyl)benzo[b]thiophene-2-carbaldehyde O-(4-(hydroxymethyl)tetrahydro-2H-pyran-4-yl) oxime] | > 1
CC(CO)(O/N=C/c1sc2c(N[C@@H]3CNC[C@@H]3F)cccc2c1CC(F)(F)F)c1ccccc1 (stereo partly drawn) [Example 1-23, (E)-7-(((3R,4S)-4-fluoropyrrolidin-3-yl)amino)-3-(2,2,2-trifluoroethyl)benzo[b]thiophene-2-carbaldehyde O-(1-hydroxy-2-phenylpropan-2-yl) oxime] | > 1
OCC(Cn1cccn1)O/N=C/c1sc2c(N[C@@H]3CNC[C@@H]3F)cccc2c1CC(F)(F)F (stereo partly drawn) [Example 1-28, (E)-7-(((3R,4S)-4-fluoropyrrolidin-3-yl)amino)-3-(2,2,2-trifluoroethyl)benzo[b]thiophene-2-carbaldehyde O-(1-hydroxy-3-(1H-pyrazol-1-yl)propan-2-yl) oxime] | > 1
OC1(CO/N=C\c2sc3c(N[C@@H]4CNC[C@@H]4F)cccc3c2CC(F)(F)F)CCCCC1 [Example 1-31, (Z)-7-(((3R,4S)-4-fluoropyrrolidin-3-yl)amino)-3-(2,2,2-trifluoroethyl)benzo[b]thiophene-2-carbaldehyde O-((1-hydroxycyclohexyl)methyl) oxime] | > 1
OC(COCc1ccccc1)CO/N=C/c1sc2c(N[C@@H]3CNC[C@@H]3F)cccc2c1CC(F)(F)F (stereo partly drawn) [Example 1-34, (E)-7-(((3R,4S)-4-fluoropyrrolidin-3-yl)amino)-3-(2,2,2-trifluoroethyl)benzo[b]thiophene-2-carbaldehyde O-(3-(benzyloxy)-2-hydroxypropyl) oxime] | > 1
CN1CC[C@@H](Nc2cccc3c(CC(F)(F)F)c(/C=N/OCC(C)(C)O)sc23)[C@@H](F)C1 [Example 1-39, (E)-7-(((3S,4R)-3-fluoro-1-methylpiperidin-4-yl)amino)-3-(2,2,2-trifluoroethyl)benzo[b]thiophene-2-carbaldehyde O-(2-hydroxy-2-methylpropyl) oxime] | < 0.1
OC1(CO/N=C/c2sc3c(N[C@@H]4CNC[C@@H]4F)cccc3c2CC(F)(F)F)CCOC1 (stereo partly drawn) [Example 1-40, (E)-7-(((3R,4S)-4-fluoropyrrolidin-3-yl)amino)-3-(2,2,2-trifluoroethyl)benzo[b]thiophene-2-carbaldehyde O-((3-hydroxytetrahydrofuran-3-yl)methyl) oxime] | 0.1 to 1
CN1CC[C@@H](Nc2cccc3c2cc(/C=N/OCC2CC2)n3CC(F)(F)F)[C@@H](F)C1 [Example 2-1, (E)-4-(((3S,4R)-3-fluoro-1-methylpiperidin-4-yl)amino)-1-(2,2,2-trifluoroethyl)-1H-indole-2-carbaldehyde O-cyclopropylmethyl oxime] | > 1
CO/N=C/c1cc2c(N[C@@H]3CCN(C)C[C@@H]3F)cccc2n1CC(F)(F)F [Example 2-2, (E)-4-(((3S,4R)-3-fluoro-1-methylpiperidin-4-yl)amino)-1-(2,2,2-trifluoroethyl)-1H-indole-2-carbaldehyde O-methyl oxime] | > 1
CN1CC[C@@H](Nc2cccc3c2cc(/C=N\OCc2ccccc2)n3CC(F)(F)F)[C@@H](F)C1 [Example 2-4, (Z)-4-(((3S,4R)-3-fluoro-1-methylpiperidin-4-yl)amino)-1-(2,2,2-trifluoroethyl)-1H-indole-2-carbaldehyde O-benzyl oxime] | > 1

From patent US20250120961A1, “P53 MODULATORS” (Nested Therapeutics, Inc., priority 2023, published 2025)
